From patent US8163909B2, “Substituted hydroxyethyl amine compounds as beta-secretase modulators and methods of use” (Amgen Inc., priority 2007, dated 2012)
Read-outs that look alike come from different tables or passages of the source.

Experiments:
[1] = system: Abeta peptide; experiment: In vivo inhibition of beta-secretase (reduction of Abeta peptide in brain and cerebrospinal fluid); design: species or system rat; conditions: Rattus norvegicus, po, 4 h, orally administered at 30 mg/kg dose, measured after 4 hours;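 further: abeta peptide quantified by sandwich ELISA with electrochemiluminescence readout in rat brain supernatant or CSF, relative to vehicle-dosed control animals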
[2] = system: Aβ40 in conditioned medium of cells stably expressing Amyloid Precursor Protein (APP); experiment: In vitro BACE cell-based assay (Aβ40 in conditioned medium, sandwich ELISA); conditions: Homo sapiens;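 further: compounds added as a dilution series, secreted peptide quantified by europium time-resolved fluorescence readout, potency fitted from percent of control versus compound concentration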
[3] = biological target: Beta Secretase enzyme (BACE) (Homo sapiens, UniProt P56817); experiment: In vitro enzymatic BACE FRET (fluorescence resonance energy transfer) assay; assay type: biochemical;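 further: fluorescence read after 1 h with 50 nM quenched peptide substrate spanning the BACE cleavage site, in pH 4.2 acetate buffer containing 10% DMSO and nonionic detergent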
Sequence of Beta Secretase enzyme (BACE) (P56817 46-501): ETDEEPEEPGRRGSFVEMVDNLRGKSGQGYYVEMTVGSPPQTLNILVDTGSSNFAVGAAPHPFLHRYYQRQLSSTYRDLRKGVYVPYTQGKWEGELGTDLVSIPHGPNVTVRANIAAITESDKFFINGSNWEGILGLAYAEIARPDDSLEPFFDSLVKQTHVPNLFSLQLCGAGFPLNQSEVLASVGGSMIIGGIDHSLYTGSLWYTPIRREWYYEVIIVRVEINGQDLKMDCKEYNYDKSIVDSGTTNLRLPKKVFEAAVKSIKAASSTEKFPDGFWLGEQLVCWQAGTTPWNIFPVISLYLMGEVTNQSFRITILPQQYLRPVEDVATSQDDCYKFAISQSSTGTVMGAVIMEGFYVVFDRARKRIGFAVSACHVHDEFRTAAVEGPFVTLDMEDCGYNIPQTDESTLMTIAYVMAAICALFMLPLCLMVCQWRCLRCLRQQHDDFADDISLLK

[4] = Microsomal stability assay, rat liver microsomes;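 further: rat liver microsomes (0.25 mg/mL) with about 1 µM compound plus 1 mM NADPH, pH 7.4, 37 °C for 30 min, parent left measured by LC-MS/MS against 0 min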
[5] = biological target: CYP3A4 (CYP3A) (Homo sapiens, UniProt P08684); experiment: in vitro; conditions: microsomes, pH 7.4;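 further: inhibition of CYP3A-mediated 1-hydroxymidazolam formation after 10 min incubation with NADPH, quantified by HPLC MS relative to metabolite produced without test compound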
Sequence of CYP3A4 (CYP3A) (P08684 2-503): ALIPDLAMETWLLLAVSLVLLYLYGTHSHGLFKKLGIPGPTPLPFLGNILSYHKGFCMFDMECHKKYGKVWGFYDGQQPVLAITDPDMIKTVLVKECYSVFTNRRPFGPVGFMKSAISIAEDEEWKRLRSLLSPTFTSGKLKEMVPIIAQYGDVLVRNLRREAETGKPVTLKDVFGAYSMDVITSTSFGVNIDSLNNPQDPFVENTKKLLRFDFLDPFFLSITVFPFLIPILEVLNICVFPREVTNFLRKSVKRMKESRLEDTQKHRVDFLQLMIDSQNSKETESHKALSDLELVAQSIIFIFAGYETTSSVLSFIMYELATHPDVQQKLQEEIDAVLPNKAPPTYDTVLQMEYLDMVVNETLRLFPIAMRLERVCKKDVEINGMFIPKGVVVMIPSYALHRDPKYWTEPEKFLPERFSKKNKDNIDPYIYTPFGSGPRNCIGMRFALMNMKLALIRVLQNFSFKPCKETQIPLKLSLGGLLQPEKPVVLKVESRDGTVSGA

[6] = biological target: CYP2D6 (Homo sapiens, UniProt P10635); experiment: CYP2D6 inhibition assay (bufuralol, pooled human liver microsomes)
Sequence of CYP2D6 (P10635 whole entry): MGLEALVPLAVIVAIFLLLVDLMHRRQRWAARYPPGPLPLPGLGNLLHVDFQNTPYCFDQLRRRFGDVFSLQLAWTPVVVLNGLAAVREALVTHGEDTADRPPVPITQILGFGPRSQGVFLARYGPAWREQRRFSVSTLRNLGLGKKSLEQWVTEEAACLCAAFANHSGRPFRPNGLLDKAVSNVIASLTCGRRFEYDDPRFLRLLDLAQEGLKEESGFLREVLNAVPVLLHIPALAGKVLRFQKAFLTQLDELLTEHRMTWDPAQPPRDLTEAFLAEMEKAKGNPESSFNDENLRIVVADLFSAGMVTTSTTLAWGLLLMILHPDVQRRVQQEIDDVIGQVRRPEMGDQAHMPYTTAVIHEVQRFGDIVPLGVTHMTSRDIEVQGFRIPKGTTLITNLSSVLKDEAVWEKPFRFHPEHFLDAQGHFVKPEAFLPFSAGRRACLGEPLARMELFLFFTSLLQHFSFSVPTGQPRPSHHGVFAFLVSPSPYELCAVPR

[7] = Microsomal stability assay, human liver microsomes;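 further: pooled human liver microsomes at 0.25 mg/mL with 1 µM compound and NADPH at 37 °C, pH 7.4, for 30 min, unchanged parent quantified by LC-MS/MS against the 0 min sample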
[8] = rat brain, read-out: percent reduction of abeta peptide in the brain of the rat
[9] = HEK293, HEK cells, read-out: HEK cell assay (IC50)
[10] = read-out: BACE1 FRET assay (IC50)
[11] = HEK293, HEK cells, read-out: HEK cell assay
[12] = 2D6 IC50 (uM), CYP enzyme inhibition
[13] = BACE enzyme assay, read-out: BACE1 FRET assay
[14] = HEK293, HEK cell-based assay IC50, read-out: HEK cell assay
[15] = 2D6 IC50 (uM), CYP2D6 inhibition
[16] = BACE enzyme assay IC50, read-out: BACE1 FRET assay
[17] = HEK293, HEK cell-based assay, IC50's in uM, read-out: HEK cell assay
[18] = BACE enzyme assay, IC50's in uM, read-out: BACE1 FRET assay
[19] = 2D6 IC50, CYP enzyme inhibition

## COCC(=O)N[C@@H](Cc1ccc(F)c(-c2nccs2)c1)[C@H](O)CN[C@H]1CC2(CCC2)Oc2ncc(CC(C)(C)C)cc21 [Example 650, N-((1S,2R)-3-(((4′S)-6′-(2,2-dimethylpropyl)-3′,4′-dihydrospiro[cyclobutane-1,2′-pyrano[2,3-b]pyridin]-4′-yl)amino)-1-(4-fluoro-3-(1,3-thiazol-2-yl)benzyl)-2-hydroxypropyl)-2-methoxyacetamide]
[1]; [8]
  inhibition in vivo at 30 mg/kg: 5 to 80%

## CC(C)Cc1cnc2c(c1)[C@@H](NC[C@@H](O)[C@H](Cc1ccc3c(c1)OCO3)NC(=O)[C@@H](C)F)CC1(CCC1)O2 [Example 600]
[2]; [9]
  IC50: 0.035 µM
[1]; [8]
  inhibition in vivo at 30 mg/kg: 5 to 80%
[1]; rat cerebrospinal fluid, read-out: percent reduction of abeta peptide in the cerebrospinal fluid of the rat
  inhibition in vivo at 30 mg/kg: 10 to 80%
[3]; [10]
  IC50: 0.03 µM

## COCC(=O)N[C@@H](Cc1cccc(F)c1)[C@H](O)CN[C@H]1CC2(CCC2)Oc2c(-c3ccncc3)cc(Cl)cc21 [compound 550]
[2]; [11]
  IC50: 0.474 µM
[4]; rat liver microsomal data
  RLM: 315 µL/min/mg
[5]
  IC50: 200 nM
[6]; [12]
  IC50: 0.5 µM
[3]; [13]
  IC50: 0.042 µM
[7]; human liver microsomal data
  HLM: 338 µL/min/mg

## CC(=O)N[C@@H](Cc1cccc(-c2ncc[nH]2)c1)[C@H](O)CN[C@H]1CC2(CCC2)Oc2ncc(CC(C)(C)C)cc21 [Example 429, N-((2S,3R)-1-(3-(1H-imidazol-2-yl)phenyl)-4-((S)-2,2-spirocyclobutyl-6-neopentyl-3,4-dihydro-2H-pyrano[2,3-b]pyridin-4-ylamino)-3-hydroxybutan-2-yl)acetamide]
[2]; [14]
  IC50: 0.6 µM
[4]; rat liver microsomes
  RLM: 37 µL/min/mg
[5]
  IC50: 1300 nM
[6]; [15]
  IC50: 0.5 µM
[3]; [16]
  IC50: 3.59 µM
[7]; human liver microsomes
  HLM: 88 µL/min/mg

## CC(=O)N[C@@H](Cc1ccc(F)c(-n2ccnc2)c1)[C@H](O)CN[C@H]1CC2(CCC2)Oc2ncc(CC(C)(C)C)cc21 [Example 426, N-((1S,2R)-3-(((4′S)-6′-(2,2-dimethylpropyl)-3′,4′-dihydrospiro[cyclobutane-1,2′-pyrano[2,3-b]pyridin]-4′-yl)amino)-1-(4-fluoro-3-(1H-imidazol-1-yl)benzyl)-2-hydroxypropyl)acetamide]
[2]; [14]
  IC50: 0.011 µM
[4]; rat liver microsomes
  RLM: 14 µL/min/mg
[5]
  IC50: ≤ 30 nM
[6]; [15]
  IC50: 0.1 µM
[3]; [16]
  IC50: 0.031 µM
[7]; human liver microsomes
  HLM: 22 µL/min/mg

## COC(OC)C(=O)N[C@@H](Cc1cccc(C#N)c1)[C@H](O)CN[C@H]1CC2(CCC2)Oc2ncc(CC(C)(C)C)cc21 [compound 798]
[2]; [17]
  IC50: 0.005 µM
[4]; rat liver microsomal data
  RLM: 423 µL/min/mg
[5]
  IC50: 500 nM
[6]; [12]
  IC50: 4.7 µM
[3]; [18]
  IC50: 0.006 µM
[7]; human liver microsomal data
  HLM: 468 µL/min/mg

## COCC(=O)N[C@@H](Cc1cc(F)cc(-c2ncc(C)s2)c1)[C@H](O)CN[C@H]1CC2(CCC2)Oc2ncc(CC(C)C)cc21 [compound 732]
[2]; [14]
  IC50: 0.083 µM
[4]; rat liver microsomes
  RLM: 399 µL/min/mg
[5]
  IC50: 200 nM
[6]; [15]
  IC50: 2.5 µM
[3]; [16]
  IC50: 0.018 µM
[7]; human liver microsomes
  HLM: 551 µL/min/mg

## CC(=O)N[C@@H](Cc1cccc(-c2cncs2)c1)[C@H](O)CN[C@H]1CC2(CCC2)Oc2ncc(CC(C)(C)C)cc21 [compound 658, N-((1S,2R)-3-(((4′S)-6′-(2,2-dimethylpropyl)-3′,4′-dihydrospiro[cyclobutane-1,2′-pyrano[2,3-b]pyridin]-4′-yl)amino)-2-hydroxy-1-(3-(1,3-thiazol-5-yl)benzyl)propyl)acetamide]
[2]; [9]
  IC50: 0.01 µM
[4]; rat liver microsomes
  RLM: 120 µL/min/mg
[5]
  IC50: 100 nM
[6]; 2D6 IC50, CYP2D6 inhibition
  IC50: 0.3 µM
[3]; [10]
  IC50: 0.006 µM
[7]; human liver microsomes
  HLM: 130 µL/min/mg

## CO[C@H](C)C(=O)N[C@@H](Cc1ccc(F)c(F)c1)[C@H](O)CN[C@H]1CC(C)(C)Oc2ncc(CC(C)(C)C)cc21 [compound 675]
[2]; [14]
  IC50: 0.013 µM
[4]; rat liver microsomes
  RLM: 411 µL/min/mg
[5]
  IC50: 2000 nM
[6]; [15]
  IC50: 21.8 µM
[3]; [16]
  IC50: 0.009 µM
[7]; human liver microsomes
  HLM: 543 µL/min/mg

## CNc1nc(CC(C)C)cc2c1OC1(CCC1)C[C@@H]2NC[C@@H](O)[C@H](Cc1ccc2c(c1)OCO2)NC(=O)[C@@H](C)OC [compound 680]
[2]; [14]
  IC50: 0.025 µM
[4]; rat liver microsomes
  RLM: 317 µL/min/mg
[5]
  IC50: 500 nM
[6]; [15]
  IC50: 14 µM
[3]; [16]
  IC50: 0.14 µM
[7]; human liver microsomes
  HLM: 220 µL/min/mg

## COCC(=O)N[C@@H](Cc1ccc(F)cc1)[C@H](O)CN[C@H]1CC(C)(C)Oc2c1cc(Br)c1c2OCO1 [compound 745]
[2]; [14]
  IC50: 0.229 µM
[4]; rat liver microsomes
  RLM: 177 µL/min/mg
[5]
  IC50: 500 nM
[6]; [15]
  IC50: 3.1 µM
[3]; [16]
  IC50: 5.73 µM
[7]; human liver microsomes
  HLM: 179 µL/min/mg

## CO[C@H](C)C(=O)N[C@@H](Cc1cc(F)cc(-c2nccs2)c1)[C@H](O)CN[C@H]1CC2(CCC2)Oc2ncc(CC(C)C)cc21 [Example 761]
[2]; [17]
  IC50: 0.375 µM
[4]; rat liver microsomal data
  RLM: 74 µL/min/mg
[5]
  IC50: 100 nM
[6]; [12]
  IC50: 0.7 µM
[3]; [18]
  IC50: 1.62 µM
[7]; human liver microsomal data
  HLM: 85 µL/min/mg

## COCC(=O)N[C@@H](Cc1ccc(F)c(-c2cscn2)c1)[C@H](O)CN[C@H]1CC2(CCC2)Oc2ncc(CC(C)(C)C)cc21 [compound 683, N-((1S,2R)-3-(((4′S)-6′-(2,2-dimethylpropyl)-3′,4′-dihydrospiro[cyclobutane-1,2′-pyrano[2,3-b]pyridin]-4′-yl)amino)-1-(4-fluoro-3-(1,3-thiazol-4-yl)benzyl)-2-hydroxypropyl)-2-methoxyacetamide]
[2]; [14]
  IC50: 0.031 µM
[4]; rat liver microsomes
  RLM: 61 µL/min/mg
[5]
  IC50: 200 nM
[6]; [15]
  IC50: 2.3 µM
[3]; [16]
  IC50: 0.009 µM
[7]; human liver microsomes
  HLM: 102 µL/min/mg

## CO[C@H](C)C(=O)N[C@@H](Cc1ccccc1)[C@H](O)CN[C@H]1CC2(CCC2)Oc2c1cc(CC(C)(C)C)nc2-c1ccncc1 [compound 543]
[2]; [11]
  IC50: 0.255 µM
[4]; rat liver microsomal data
  RLM: 242 µL/min/mg
[5]
  IC50: 100 nM
[6]; [12]
  IC50: 2.6 µM
[3]; [13]
  IC50: 0.037 µM
[7]; human liver microsomal data
  HLM: 41 µL/min/mg

## COCC(=O)N[C@@H](Cc1ccc(F)cc1)[C@H](O)CN[C@H]1CC2(CCC2)Oc2c1cc(CC(C)(C)C)nc2-c1nccs1 [compound 451]
[2]; HEK293, Table 2, HEK cells, read-out: HEK cell assay
  IC50: 0.271 µM
[4]; rat liver microsomal data
  RLM: 682 µL/min/mg
[5]
  IC50: 600 nM
[6]; [19]
  IC50: 9.4 µM
[3]; Table 2, read-out: BACE1 FRET assay
  IC50: 0.019 µM
[7]; human liver microsomal data
  HLM: 248 µL/min/mg

## CC(=O)N[C@@H](Cc1cc(F)cc(-c2ccco2)c1)[C@H](O)CN[C@H]1CC2(CCC2)Oc2ccc(CC(C)(C)C)cc21 [compound 646]
[2]; [9]
  IC50: 0.104 µM
[4]; rat liver microsomes
  RLM: 344 µL/min/mg
[5]
  IC50: 2000 nM
[6]; 2D6 IC50, CYP2D6 inhibition
  IC50: 1.6 µM
[3]; [10]
  IC50: 0.004 µM
[7]; human liver microsomes
  HLM: 326 µL/min/mg

## Cc1nc(CN2CCO[C@H](C(=O)N[C@@H](Cc3ccc(F)cc3)[C@H](O)CN[C@H]3CC4(CCC4)Oc4ncc(CC(C)(C)C)cc43)C2)cs1 [compound 762]
[2]; [17]
  IC50: 0.037 µM
[4]; rat liver microsomal data
  RLM: 522 µL/min/mg
[5]
  IC50: 300 nM
[6]; [12]
  IC50: 2.6 µM
[3]; [18]
  IC50: 0.037 µM
[7]; human liver microsomal data
  HLM: 297 µL/min/mg

## COCC(=O)N[C@@H](Cc1cccc([C@@H]2CCCO2)c1)[C@H](O)CN[C@H]1CC2(CCC2)Oc2ncc(CC(C)(C)C)cc21 [compound 915]
[2]; HEK293, cell-based assay, HEK cells, IC50's in uM, read-out: HEK cell assay
  IC50: 0.562 µM
[4]; rat liver microsomal data
  RLM: 590 µL/min/mg
[5]
  IC50: 600 nM
[6]; [19]
  IC50: 6.8 µM
[3]; [18]
  IC50: 1.96 µM
[7]; human liver microsomal data
  HLM: 921 µL/min/mg

## CN1CCO[C@@H](C(=O)N[C@@H](Cc2ccc(F)cc2)[C@H](O)CN[C@H]2CC3(CCC3)Oc3ncc(CC(C)(C)C)cc32)C1 [compound 739]
[2]; [14]
  IC50: 0.008 µM
[4]; rat liver microsomes
  RLM: 239 µL/min/mg
[5]
  IC50: 800 nM
[6]; [15]
  IC50: 6.7 µM
[3]; [16]
  IC50: 0.064 µM
[7]; human liver microsomes
  HLM: 266 µL/min/mg
